{"source": "patent US20240300999A1", "about": "“PEPTIDES FOR REGULATING GLUCOSE” (priority 2021, published 2024)", "key": {"L6 myotubes [1]": {"system": "L6 myotubes", "experiment": "Glucose uptake (2-deoxy-D-[3H]glucose) screening assay in cultured L6 myotubes", "type": "cell-based, rat", "conditions": "for Glucose Uptake (fold activity to control), Insulin (−) / Glucose Uptake (fold activity to control), Insulin (+): synthetic peptides 1 ng/mL (each), mean ± SEM; for Concentration at which inhibition of glucose uptake was exhibited / Concentration at which stimulation of glucose uptake was exhibited: L6 myotubes; for Bioactivity: Table 4, identified peptides", "procedure": "Screening assays were performed as follows. L6 rat myoblasts (courtesy of Dr. Amira Klip, Hospital for Sick Children, Toronto, Canada) were grown and maintained in monolayer culture in alpha-MEM containing 2% (v/v) fetal bovine serum in an atmosphere of 5% CO2 at 37° C. L6 myoblasts were plated in 12-well or 24-well plates at 20,000 cells/mL, replacing the media every two days until complete differentiation into myotubes (7 days post-plating).\nOnce completely differentiated, myotubes were serum deprived (alpha-MEM with 0% FBS) for 3 h and treated or not with SPF (1 ng/ml or 1 μg/mL) for 2 h without (insulin-independent) or with 100 nM insulin (insulin-dependent) during the last 45 min. Cells were rinsed once with glucose-free HEPES-buffered saline solution pH 7.4 (140 mM NaCl, 20 mM HEPES/Na, 5 mM KCl, 2.5 mM MgSO4 and 1 mM CaCl2)), and were subsequently incubated for 8 min with 10 µM 2-deoxy-D-glucose containing 0.3 μCi/mL 2-deoxy-D-[3H]glucose in the same buffer. After incubation in transport medium, cells were rinsed three times with ice-cold saline solution (0.9% NaCl) and stored at −20° C. Cells were disrupted by adding 1 mL of 50 mM NaOH to plates with agitation for 15 min. Cell-incorporated radioactivity was measured using a Perkin Elmer Tricarb liquid scintillation counter. Protein concentrations were determined by the micro bicinchoninic acid method (BCA) using a bovine serum albumin (BSA) standard curve (ThermoScientific, Waltham, Mass, USA), and the results expressed in pM/min/mg protein, calculated using the following equation: […]\nwhere DPM (sample) is the number of disintegrations per minute (DPM) measured for the tested sample, C is the concentration of protein (mg), DPM (2DG) is the number of DPM measure for the solution of radioactive 2-deoxy-D-[3H] glucose for 1 pmol and equal to 72.2025 dpm/pmol, and t is the incubation time with 2-deoxy-D-[3H] glucose, and reported in terms of relative activity to the control sample in the absence of insulin. Statistical analysis was performed in Microsoft Excel using a two-tailed Student's t-test assuming equal variance."}, "L6 myotubes [2]": {"system": "L6 myotubes", "experiment": "Glucose uptake (2-deoxy-D-[3H]glucose) screening assay in cultured L6 myotubes", "type": "cell-based, rat", "conditions": "for Glucose Uptake (fold activity to control), Insulin (−) / Glucose Uptake (fold activity to control), Insulin (+): synthetic peptides 1 pg/mL (each), mean ± SEM"}, "[3]": {"conditions": "1 ng/mL, insulin state not distinguished (presence or absence)"}, "[4]": {"conditions": "1 pg/mL, insulin state not distinguished"}}}
{"substance": "Ile-Ala-Ile", "values": [{"measurement": "Effect on glucose uptake (in words)", "setting": "L6 myotubes [1]; [3]", "value": "No significant effect"}, {"measurement": "Glucose Uptake (fold activity to control), Insulin (−)", "setting": "L6 myotubes [1]; absence of insulin", "value": "1.04 ± 0.04 fold activity to control"}, {"measurement": "Glucose Uptake (fold activity to control), Insulin (+)", "setting": "L6 myotubes [1]; presence of insulin", "value": "1.80 ± 0.09 fold activity to control"}]}
{"substance": "Ile-Ala-Tyr (IAY) [chemically synthesized tripeptide, Ile-X-Tyr motif]", "values": [{"measurement": "Effect on glucose uptake (in words)", "setting": "L6 myotubes [1]; 1 ng/mL (each peptide), absence of insulin", "value": "stimulated glucose uptake"}, {"measurement": "Effect on glucose uptake (in words)", "setting": "L6 myotubes [1]; [3]", "value": "stimulating effect"}, {"measurement": "Effect on glucose uptake (in words)", "setting": "L6 myotubes [1]; 1 ng/mL, presence of insulin", "value": "stimulated glucose uptake"}, {"measurement": "Concentration at which inhibition of glucose uptake was exhibited", "setting": "L6 myotubes [1]", "value": 2.7, "unit": "pM"}, {"measurement": "Concentration at which stimulation of glucose uptake was exhibited", "setting": "L6 myotubes [1]", "value": 2.7, "unit": "nM"}, {"measurement": "Bioactivity", "setting": "L6 myotubes [1]", "value": "Modulates glucose uptake"}, {"measurement": "Glucose Uptake (fold activity to control), Insulin (−)", "setting": "L6 myotubes [1]; absence of insulin", "value": "1.13 ± 0.05 fold activity to control"}, {"measurement": "Glucose Uptake (fold activity to control), Insulin (+)", "setting": "L6 myotubes [1]; presence of insulin", "value": "1.97 ± 0.08 fold activity to control"}, {"measurement": "Effect on glucose uptake (in words)", "setting": "L6 myotubes [2]; 1 pg/mL (each peptide), absence of insulin", "value": "inhibited glucose uptake"}, {"measurement": "Effect on glucose uptake (in words)", "setting": "L6 myotubes [2]; [4]", "value": "inhibiting effect"}, {"measurement": "Effect on glucose uptake (in words)", "setting": "L6 myotubes [2]; 1 pg/mL, presence of insulin", "value": "inhibited glucose uptake"}, {"measurement": "Glucose Uptake (fold activity to control), Insulin (−)", "setting": "L6 myotubes [2]; absence of insulin", "value": "0.86 ± 0.04 fold activity to control"}, {"measurement": "Glucose Uptake (fold activity to control), Insulin (+)", "setting": "L6 myotubes [2]; presence of insulin", "value": "1.55 ± 0.04 fold activity to control"}]}
{"substance": "Ile-Gly-Ile", "values": [{"measurement": "Effect on glucose uptake (in words)", "setting": "L6 myotubes [1]; [3]", "value": "No significant effect"}, {"measurement": "Glucose Uptake (fold activity to control), Insulin (−)", "setting": "L6 myotubes [1]; absence of insulin", "value": "1.04 ± 0.04 fold activity to control"}, {"measurement": "Glucose Uptake (fold activity to control), Insulin (+)", "setting": "L6 myotubes [1]; presence of insulin", "value": "1.75 ± 0.17 fold activity to control"}]}
{"substance": "Ile-Gly-Tyr (IGY) [chemically synthesized tripeptide, Ile-X-Tyr motif]", "values": [{"measurement": "Effect on glucose uptake (in words)", "setting": "L6 myotubes [1]; [3]", "value": "stimulating effect"}, {"measurement": "Effect on glucose uptake (in words)", "setting": "L6 myotubes [1]; 1 ng/mL, presence of insulin", "value": "stimulated glucose uptake"}, {"measurement": "Concentration at which inhibition of glucose uptake was exhibited", "setting": "L6 myotubes [1]", "value": 2.8, "unit": "pM"}, {"measurement": "Concentration at which stimulation of glucose uptake was exhibited", "setting": "L6 myotubes [1]", "value": 2.8, "unit": "nM"}, {"measurement": "Bioactivity", "setting": "L6 myotubes [1]", "value": "Modulates glucose uptake"}, {"measurement": "Glucose Uptake (fold activity to control), Insulin (−)", "setting": "L6 myotubes [1]; absence of insulin", "value": "1.05 ± 0.06 fold activity to control"}, {"measurement": "Glucose Uptake (fold activity to control), Insulin (+)", "setting": "L6 myotubes [1]; presence of insulin", "value": "2.02 ± 0.05 fold activity to control"}, {"measurement": "Effect on glucose uptake (in words)", "setting": "L6 myotubes [2]; [4]", "value": "inhibiting effect"}, {"measurement": "Effect on glucose uptake (in words)", "setting": "L6 myotubes [2]; 1 pg/mL, presence of insulin", "value": "inhibited glucose uptake"}, {"measurement": "Glucose Uptake (fold activity to control), Insulin (−)", "setting": "L6 myotubes [2]; absence of insulin", "value": "0.98 ± 0.06 fold activity to control"}, {"measurement": "Glucose Uptake (fold activity to control), Insulin (+)", "setting": "L6 myotubes [2]; presence of insulin", "value": "1.49 ± 0.10 fold activity to control"}]}
{"substance": "Ile-Ile-Ile", "values": [{"measurement": "Effect on glucose uptake (in words)", "setting": "L6 myotubes [1]; [3]", "value": "No significant effect"}, {"measurement": "Glucose Uptake (fold activity to control), Insulin (−)", "setting": "L6 myotubes [1]; absence of insulin", "value": "1.00 ± 0.04 fold activity to control"}, {"measurement": "Glucose Uptake (fold activity to control), Insulin (+)", "setting": "L6 myotubes [1]; presence of insulin", "value": "2.02 ± 0.27 fold activity to control"}]}
{"substance": "Ile-Ile-Tyr", "values": [{"measurement": "Effect on glucose uptake (in words)", "setting": "L6 myotubes [1]; [3]", "value": "did not significantly affect"}, {"measurement": "Glucose Uptake (fold activity to control), Insulin (−)", "setting": "L6 myotubes [1]; absence of insulin", "value": "1.06 ± 0.03 fold activity to control"}, {"measurement": "Glucose Uptake (fold activity to control), Insulin (+)", "setting": "L6 myotubes [1]; presence of insulin", "value": "1.88 ± 0.11 fold activity to control"}, {"measurement": "Glucose Uptake (fold activity to control), Insulin (−)", "setting": "L6 myotubes [2]; absence of insulin", "value": "0.97 ± 0.04 fold activity to control"}, {"measurement": "Glucose Uptake (fold activity to control), Insulin (+)", "setting": "L6 myotubes [2]; presence of insulin", "value": "1.61 ± 0.07 fold activity to control"}]}
